This assay deals with T1, RORc (Homo sapiens, UniProt P51449).
T1 construct: host or cells: E. coli
T1 sequence (P51449 269-508 limits assumed): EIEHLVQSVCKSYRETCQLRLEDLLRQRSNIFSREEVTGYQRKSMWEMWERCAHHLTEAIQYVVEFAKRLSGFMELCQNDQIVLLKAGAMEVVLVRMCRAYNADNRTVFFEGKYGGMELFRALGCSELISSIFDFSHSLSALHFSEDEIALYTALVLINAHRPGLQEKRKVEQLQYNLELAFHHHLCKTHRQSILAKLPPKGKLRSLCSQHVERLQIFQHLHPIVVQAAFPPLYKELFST
In words: In Vitro RORc Ligand Binding Assay (25-[3H]hydroxycholesterol radioligand, filter plate). Conditions: RORc ligand binding domain 0.6 ug/mL; 6 nM 25-[3H]hydroxycholesterol; 3 h at 25° C. The procedure: Example 68 In Vitro RORc Ligand Binding Assay
This assay was used to determine a compound's potency in inhibiting activity of RORc by determining, Kiapp, IC50, or percent inhibition values.
On day of the assay, 100 uL of 0.05% CHAPS (in deionized H2O) was added to all wells of the GFB Unifilter plate and allowed soak for 1 h. A wash buffer of 50 mM HEPES (pH 7.4), 150 mM NaCl, and 5 mM MgCl2 was prepared to wash the filter plate. To prepare an assay buffer, BSA was added to the wash buffer to reach 0.01% and DTT was added to reach 1 mM.
For IC50 mode, 10 mM compound stocks were serially diluted in DMSO with DMSO to give 20× required final concentration in DMSO (15 uL compound+30 uL DMSO). The 20× compound stocks were diluted in DMSO with Assay Buffer 4-fold to reach 5× the final test concentration in 25% DMSO (10 uL compound+30 uL Assay Buffer). Solutions were mixed by aspiration several times with a pipette set on 50 uL volume. For the assay, 10 uL of 5× compound stock solutions in 25% DMSO were added to the assay plate in duplicate.
For two point screening, 10 mM stock compound solutions were diluted in DMSO to obtain 200 uM (20× the high test concentration) and then diluted 10-fold further to reach 20 uM (20× the low test concentration). The 20× stocks were diluted 4-fold with Assay Buffer (10 uL compound+30 uL Assay Buffer) to reach 5× the test concentrations (50 uM and 5 uM) and 10 uL were added to two assay plates for the duplicate wells. With each concentration tested on 2 plates, each set of 80 compounds used 4 assay plates (1 uM and 10 uM, with n=2).
25-hydroxycholesterol (1 uM) was used to determine the level of NSB signal is prepared in DMSO as for compounds above, then diluted in Assay Buffer to give a final concentration of 5 uM. For 25-hydroxycholesterol in 25% DMSO/75% Assay Buffer; 10 uL per well was used for NSB samples. Wells for Total Binding and No Receptor sample determination contained 10 uL of 25% DMSO/75% Assay Buffer per well.
Radioligand (25-[^3H]hydroxycholesterol) Preparation
25-[^3H]hydroxycholesterol was dilute in Assay Buffer to obtain 15 nM and vortex to mix. Add 20 uL to all wells to reach 6 nM final in the assay.
Stock receptor solution was diluted in assay buffer to obtain 1.5 ug/mL in Assay Buffer. 20 uL was added to all wells. For No R samples, 20 uL Assay Buffer was substituted for receptor solution.
Assay plates were 96-well polypropylene V-bottom plates. 10 uL of 5× compound in 25% DMSO/75% Assay Buffer was added to Test wells. 10 uL of 25% DMSO/75% Assay Buffer was added to Total Binding or No Receptor wells. 10 uL of 5 uM 25-hydroxycholesterol in 25% DMSO/75% Assay Buffer was added to NSB wells. 20 uL of 15 nM 25-[^3H]hydroxycholesterol prepared in Assay Buffer was added to all wells. 20 uL of 1.5 ug/mL RORc receptor was added to wells (or […] Assay Buffer to No R wells). Following addition to the wells, the plates were incubated 3 h at 25° C.
Using a Packard Filtermate Harvester, the filter plate were washed 4 times following transfer of the incubated samples. Plates were dry-filtered completely (2 h at 50° C. or overnight at room temperature). 50 uL Microscint 0 was added to all wells and read on Topcount protocol Inverted.
Final concentrations were as follows: 50 mM HEPES buffer (pH 7.4); 150 mM NaCl; 1 mM DTT; 5 mM MgCl2; 0.01% BSA; 5% DMSO; 0.6 ug/mL RORc receptor; 6 nM 25-[^3H]hydroxycholesterol. For NSB wells, 1 uM 25-hydroxycholesterol was also present.
As usually defined, the IC50 is the concentration that inhibits the measured activity by half. Low readings indicate greater potency, high ones weaker potency. Turning to `Cc1n[nH]c(C)c1-c1ccc(CN2[C@@H](C)CCC(c3ccccc3)S2(=O)=O)c(F)c1` (single isomer, unassigned) [Example 1], the concentration for half-maximal inhibition (IC50) worked out at 0.527 µM.
For `Cc1noc(C)c1C(=O)Nc1ccc(CN2[C@@H](C)CCC(c3ccccc3)S2(=O)=O)c(F)c1` (single isomer, unassigned) [Example 4], the half-maximal inhibitory concentration (IC50) was 0.027 µM.
For `C[C@H]1CCC(c2ccccc2)S(=O)(=O)N1Cc1ccc(C(=O)NCc2cn[nH]c2)cc1` (single isomer, unassigned) [Example 7] the value was 0.502 µM.
For `Cc1cc(NC(=O)c2ccc(CN3[C@@H](C)CCC(c4ccccc4)S3(=O)=O)cc2)n(C)n1` (single isomer, unassigned) [Example 9] the value was 0.969 µM.
Then `C[C@H]1CCC(c2ccccc2)S(=O)(=O)N1Cc1ccc(C(=O)Nc2nc[nH]c2C#N)cc1` (single isomer, unassigned) [Example 10], with 2.9 µM; and `C[C@H]1CCC(c2ccccc2)S(=O)(=O)N1Cc1ccc(C(=O)Nc2ncnn2C)cc1` (single isomer, unassigned) [Example 21], with 3.28 µM; and `C[C@H]1CCC(c2ccccc2)S(=O)(=O)N1Cc1ccc(-c2ccc(S(N)(=O)=O)cc2)cc1F` (single isomer, unassigned) [Example 22], with 0.087 µM.
`C[C@H]1CCC(c2ccccc2)S(=O)(=O)N1Cc1ccc(-c2cccc(CC(N)=O)c2)cc1F` (single isomer, unassigned) [Example 25] yielded a half-inhibitory concentration (IC50) of 0.208 µM.
For `C[C@H]1CCC(c2ccccc2)S(=O)(=O)N1Cc1ccc(-c2ccc(C(=O)N(C)C)cc2)cc1F` (single isomer, unassigned) [Example 30] the value was 0.16 µM; for `C[C@H]1CCC(c2ccccc2)S(=O)(=O)N1Cc1ccc(-c2csc(S(C)(=O)=O)n2)cc1F` (single isomer, unassigned) [Example 37], 0.273 µM; for `C[C@H]1CCC(c2ccccc2)S(=O)(=O)N1Cc1ccc(-c2ccc(S(C)(=O)=O)nn2)cc1F` (single isomer, unassigned) [Example 41], 0.289 µM.
For `C[C@H]1CCC(c2ccccc2)S(=O)(=O)N1Cc1ccc(-c2n[nH]c(S(C)(=O)=O)n2)cc1F` (single isomer, unassigned) [Example 42] the value was 2.17 µM; for `C[C@H]1CCC(c2ccccc2)S(=O)(=O)N1Cc1ccc(-c2cnc(NS(C)(=O)=O)nc2)cc1F` (single isomer, unassigned) [Example 43], 0.275 µM.
Then `Cc1ccnc(COc2ccc(CN3[C@@H](C)CCC(c4ccccc4)S3(=O)=O)cc2)n1` (single isomer, unassigned) [Example 44], with 0.963 µM; and `CC(Oc1ccc(CN2[C@@H](C)CCC(c3ccccc3)S2(=O)=O)cc1)c1cnn(C)c1` (single isomer, unassigned) [Example 45], with 0.693 µM; and `CC(Oc1ccc(CN2[C@@H](C)CCC(c3ccccc3)S2(=O)=O)cc1)c1ncccn1` (single isomer, unassigned) [Example 50], with 1.35 µM.
`C[C@H]1CCC(c2ccccc2)S(=O)(=O)N1Cc1ccc(OCc2ccncc2)cc1` (single isomer, unassigned) [Example 57] displayed an IC50 of 0.114 µM.
Then `C[C@H]1CCC(c2ccccc2)S(=O)(=O)N1Cc1ccc(OCc2cccnc2)cc1` (single isomer, unassigned) [Example 58], with 0.106 µM; and `Cc1ncsc1CCOc1ccc(CN2[C@@H](C)CCC(c3ccccc3)S2(=O)=O)cc1` (single isomer, unassigned) [Example 61], with 0.151 µM; and `C[C@H]1CCC(c2ccccc2)S(=O)(=O)N1Cc1ccc(-c2ccc3nncn3c2)cc1F` (stereo partly drawn) [Example 5, 6-[3-Fluoro-4-((3S)-3-methyl-1,1-dioxo-6-phenyl-[1,2]thiazinan-2-ylmethyl)-phenyl]-[1,2,4]triazolo[4,3-a]pyridine], with 0.454 µM.
For `C[C@H]1CCC(c2ccccc2)S(=O)(=O)N1Cc1ccc(C(=O)NCCn2ccnc2)cc1` (stereo partly drawn) [Example 6, N-(2-Imidazol-1-yl-ethyl)-4-((3S)-3-methyl-1,1-dioxo-6-phenyl-[1,2]thiazinan-2-ylmethyl)-benzamide] the value was 3.92 µM; for `C[C@H]1CC[C@H](c2ccccc2)S(=O)(=O)N1Cc1ccc(C(=O)NCCCn2ccnc2)cc1` [Example 8, N-(3-Imidazol-1-yl-propyl)-4-((3S)-3-methyl-1,1-dioxo-6-phenyl-[1,2]thiazinan-2-ylmethyl)-benzamide], 4.98 µM.
The compound `Cc1cc(NC(=O)c2ccc(CN3[C@@H](C)CCC(c4ccccc4)S3(=O)=O)cc2)n[nH]1` (stereo partly drawn) [Example 11, 4-((3S)-3-Methyl-1,1-dioxo-6-phenyl-[1,2]thiazinan-2-ylmethyl)-N-(5-methyl-1H-pyrazol-3-yl)-benzamidc] yielded an IC50 of 1.22 µM.
For `Cc1cc(NC(=O)c2ccc(CN3[C@@H](C)CCC(c4ccccc4)S3(=O)=O)cc2)no1` (stereo partly drawn) [Example 12, 4-((3S)-3-Methyl-1,1-dioxo-6-phenyl-[1,2]thiazinan-2-ylmethyl)-N-(5-methyl-isoxazol-3-yl)-benzamide] the value was 0.404 µM.
Then `C[C@H]1CCC(c2ccccc2)S(=O)(=O)N1Cc1ccc(C(=O)Nc2ccon2)cc1` (stereo partly drawn) [Example 13, N-Isoxazol-3-yl-4-((3S)-3-methyl-1,1-dioxo-6-phenyl-[1,2]thiazinan-2-ylmethyl)-benzamide], with 0.166 µM; and `C[C@H]1CCC(c2ccccc2)S(=O)(=O)N1Cc1ccc(C(=O)NCc2noc(C(N)=O)n2)cc1` (stereo partly drawn) [Example 14, 3-{[4-((3S)-3-Methyl-1,1-dioxo-6-phenyl-[1,2]thiazinan-2-ylmethyl)-benzoylamino]-methyl}-[1,2,4]oxadiazole-5-carboxylic acid amide], with 1.39 µM; and `C[C@H]1CCC(c2ccccc2)S(=O)(=O)N1Cc1ccc(C(=O)NCc2noc(C(=O)N(C)C)n2)cc1` (stereo partly drawn) [Example 15, 3-{[4-((3S)-3-Methyl-1,1-dioxo-6-phenyl-[1,2]thiazinan-2-ylmethyl)-benzoylamino]-methyl}-[1,2,4]oxadiazole-5-carboxylic acid dimethylamide], with 5.19 µM.
Compound `C[C@H]1CCC(c2ccccc2)S(=O)(=O)N1Cc1ccc(C(=O)N(C)c2ncco2)cc1` (stereo partly drawn) [Example 16, N-Methyl-4-((3S)-3-methyl-1,1-dioxo-6-phenyl-[1,2]thiazinan-2-ylmethyl)-N-oxazol-2-yl-benzamide] displayed an IC50 of 4.84 µM.
Then `C[C@H]1CCC(c2ccccc2)S(=O)(=O)N1Cc1ccc(C(=O)NCc2ccnn2C)cc1` (stereo partly drawn) [Example 17, 4-((3S)-3-Methyl-1,1-dioxo-6-phenyl-[1,2]thiazinan-2-ylmethyl)-N-(2-methyl-2H-pyrazol-3-ylmethyl)-benzamide], with 1.98 µM; and `CC(NC(=O)c1ccc(CN2[C@@H](C)CCC(c3ccccc3)S2(=O)=O)cc1)c1ncc[nH]1` (stereo partly drawn) [Example 18, N-[1-(1H-Imidazol-2-yl)-ethyl]-4-((3S)-3-methyl-1,1-dioxo-6-phenyl-[1,2]thiazinan-2-ylmethyl)-benzamide], with 1.92 µM.

The record behind these values is patent publication US20170296550A1, “ARYL SULTAM DERIVATIVES AS RORc MODULATORS” (Genentech, Inc., priority 2013, published 2017).
